Assay results published in publication PMC10743905, “Design, Synthesis, and In Vitro and In Vivo Bioactivity Studies of Hydrazide–Hydrazones of 2,4-Dihydroxybenzoic Acid” (International Journal of Molecular Sciences, 2023).
In brackets after ≈: the same amount, converted by molar mass. Read-outs that look alike come from different tables or passages of the source.

Experiments:
[1] = tested on: Micrococcus luteus ATCC 10240; experiment: Broth microdilution MIC/MBC; type: cell-based; conditions: for MBC: ATCC10240
Summary of the method: (§1)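 Broth microdilution per EUCAST and CLSI guidelines: 0.5 McFarland inocula in 0.85% NaCl added to two-fold compound dilutions (1000–0.488 µg/ml final). Media were Mueller-Hinton broth for bacteria and RPMI 1640 with MOPS for yeasts.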

[2] = tested on: Proteus mirabilis ATCC 12453; experiment: Broth microdilution MIC/MBC; type: cell-based
Summary of the method: as §1

[3] = tested on: Pseudomonas aeruginosa ATCC 9027; experiment: Broth microdilution MIC/MBC; type: cell-based; conditions: ATCC9027
Summary of the method: as §1

[4] = tested on: Salmonella typhimurium ATCC 14028; experiment: Broth microdilution MIC/MBC; type: cell-based
Summary of the method: as §1

[5] = tested on: Staphylococcus aureus ATCC 29213; experiment: Broth microdilution MIC/MBC; type: cell-based; conditions: for MBC / MIC: ATCC29213
Summary of the method: as §1

[6] = tested on: Staphylococcus aureus ATCC 43300; experiment: Broth microdilution MIC/MBC; type: cell-based; conditions: Staphylococcus aureus ATCC 43300 (MRSA)
Summary of the method: as §1

[7] = tested on: Staphylococcus epidermidis ATCC 12228; experiment: Broth microdilution MIC/MBC; type: cell-based; conditions: for MBC: ATCC12228; for MIC: ATCC12228, read-out: MIC
Summary of the method: as §1

[8] = tested on: Bacillus subtilis ATCC 6633; experiment: Broth microdilution MIC/MBC; type: cell-based; conditions: for MBC: ATCC6633
Summary of the method: as §1

[9] = tested on: Bacillus cereus ATCC 10876; experiment: Broth microdilution MIC/MBC; type: cell-based; conditions: for MBC: ATCC10876; for MIC: ATCC10876, read-out: MIC
Summary of the method: as §1

[10] = tested on: Bordetella bronchiseptica ATCC 4617; experiment: Broth microdilution MIC/MBC; type: cell-based
Summary of the method: as §1

[11] = tested on: Enterococcus faecalis ATCC 29212; experiment: Broth microdilution MIC/MBC; type: cell-based; conditions: for MBC: ATCC29212, read-out: MBC; for MIC: ATCC29212, read-out: MIC
Summary of the method: as §1

[12] = tested on: Escherichia coli ATCC 25922; experiment: Broth microdilution MIC/MBC; type: cell-based
Summary of the method: as §1

[13] = tested on: Klebsiella pneumoniae ATCC 13883; experiment: Broth microdilution MIC/MBC; type: cell-based
Summary of the method: as §1

[14] = tested on: Candida albicans ATCC 10231; experiment: Broth microdilution MIC/MFC; type: cell-based; conditions: ATCC10231, read-out: MIC
Summary of the method: as §1

[15] = tested on: Candida albicans ATCC 2091; experiment: Broth microdilution MIC/MFC; type: cell-based; conditions: ATCC2091, read-out: MIC
Summary of the method: as §1

[16] = tested on: Candida glabrata ATCC 90030; experiment: Broth microdilution MIC/MFC; type: cell-based; conditions: for MIC: ATCC90030, read-out: MIC
Summary of the method: as §1

[17] = tested on: Candida krusei ATCC 14243; experiment: Broth microdilution MIC/MFC; type: cell-based; conditions: Pichia kudriavzevii, ATCC14243, read-out: MIC
Summary of the method: as §1

[18] = tested on: Candida parapsilosis ATCC 22019; experiment: Broth microdilution MIC/MFC; type: cell-based; conditions: for MIC: ATCC22019, read-out: MIC
Summary of the method: as §1

[19] = tested on: reference Gram-positive bacteria; experiment: Broth microdilution, summary over the Gram-positive panel; type: cell-based; conditions: read-out: MIC
Source text: (§2) In vitro antimicrobial activity assays - Methodology
(§3) The examined compounds 1 - 24 were screened in vitro for antibacterial and antifungal activities using the broth microdilution method according to procedure reported earlier by our research group and European Committee on Antimicrobial Susceptibility Testing (EUCAST) and Clinical and Laboratory Standards Institute (CLSI) guidelines against a panel of reference and clinical or saprophytic strains of microorganisms, in-cluding Gram-positive bacteria, Staphylococcus aureus ATCC 43300 (Methicillin Resistant S. aureus – MRSA), Staphylococcus aureus ATCC 29213 (Methicillin Susceptible S. aureus – MSSA), Staphylococcus epidermidis ATCC 12228, Enterococcus faecalis ATCC 29212, Micro-coccus luteus ATCC 10240, Bacillus subtilis ATCC 6633 and Bacillus cereus ATCC 10876), Gram-negative bacteria (Bordetella bronchiseptica ATCC 4617, Escherichia coli ATCC 25922, Klebsiella pneumoniae ATCC 13883, Proteus mirabilis ATCC 12453, Salmonella typhimurium ATCC 14028 and Pseudomonas aeruginosa ATCC 9027) and fungi belonging to yeasts (Can-dida albicans ATCC 10231, Candida albicans ATCC 2091, Candida parapsilosis ATCC 22019, Candida glabrata ATCC 90030 and Candida krusei ATCC 14243). The microorganisms be-longing to ATCC came from American Type Culture Collection, routinely used for the evaluation of antimicrobials. […]
Samples containing examined compounds were dissolved in dimethyl sulfoxide (DMSO). […]
(§4) Subsequently, the MIC (Minimal Inhibitory Concentration) of the compounds was ex-amined by the microdilution broth method, using their two-fold dilutions in Mueller- […]
(§5) Hinton broth or (for bacteria) and RPMI 1640 broth with MOPS (for fungi) prepared in 96-well polystyrene plates. Final concentrations of the compounds ranged from 1000 to 0.488 µg/ml. Microbial suspensions were prepared in 0.85% NaCl with an optical density of 0.5 McFarland standard. Next each bacterial or fungal suspension was added per each well containing broth and various concentrations of the examined compounds. After incuba-

[20] = tested on: Gram-negative bacteria; experiment: Broth microdilution, summary over the Gram-negative panel; type: cell-based
Source text: as §2
as §3, with “antimicrobials. All the used microbial cultures were first subcultured on nu-trient agar or Sabouraud agar at 35°C for 18-24 h or 30°C for 24-48 h for bacteria and fungi,” for “antimicrobials.”
The surface of Mueller-Hinton agar (for bacteria) and RPMI 1640 with MOPS (for fungi) were inoculated with the suspensions of bacterial or fungal species. Microbial suspensions were prepared in sterile saline with an optical density of McFarland standard scale 0.5.
Samples containing examined compounds were dissolved in dimethyl sulfoxide (DMSO).
Furthermore, bacterial and fungal suspensions were put onto Petri dishes with solid me-dia containing 2 mg/mL of the tested compounds followed incubation at 37°C for 24h and 30°C for 48h for bacteria and fungi, respectively. The inhibition of microbial growth was judged by comparison with a control culture prepared without any sample tested. Ciprof-loxacin, vancomycin, nitrofurantoin, cefuroxime, ampicillin or nystatin (Sigma) were used as a reference antibacterial or antifungal compounds, respectively.
as §4, §5

With Cc1cccc(/C=N/NC(=O)c2ccc(O)cc2O)c1 [Compound 2, 2,4-dihydroxy-N-[(3-methylphenyl)methylidene]benzohydrazide] the MBC/MIC [1] was 8, the MIC [1] was 31.25 µg/mL (≈ 116 µM) and the MBC [1] was 250 µg/mL (≈ 925 µM). It also gave an MIC ([1]; ATCC10240, read-out: MIC) of 31.2 µg/mL (≈ 116 µM), an MBC/MIC [2] greater than 1 and an MBC ([2]; ATCC12453) greater than 1000 µg/mL. The MIC ([2]; ATCC12453) was 1000 µg/mL (≈ 3700 µM), the MIC [3] was greater than 1000 µg/mL and the MBC/MIC [4] was greater than 1. It also gave an MBC ([4]; Salmonella enterica) greater than 1000 µg/mL, an MIC ([4]; Salmonella enterica) of 1000 µg/mL (≈ 3700 µM) and an MBC/MIC [5] of 1. The MBC [5] was 250 µg/mL (≈ 925 µM), the MIC [5] was 250 µg/mL (≈ 925 µM) and the MBC [6] was 500 µg/mL (≈ 1850 µM). It also gave an MBC/MIC [6] of 2, an MIC [6] of 250 µg/mL (≈ 925 µM) and an MBC/MIC [7] of 2. The MBC [7] was 500 µg/mL (≈ 1850 µM), the MIC [7] was 250 µg/mL (≈ 925 µM) and the MBC/MIC [8] was 8. It also gave an MIC [8] of 62.5 µg/mL (≈ 231 µM), an MBC [8] of 500 µg/mL (≈ 1850 µM) and an MIC ([8]; ATCC6633, read-out: MIC) of 62.5 µg/mL (≈ 231 µM). For the same compound, the MBC/MIC [9] was 2, the MBC [9] was 250 µg/mL (≈ 925 µM) and the MIC [9] was 125 µg/mL (≈ 462 µM). It also gave an MBC/MIC [10] greater than 1, an MBC ([10]; ATCC4617) greater than 1000 µg/mL and an MIC ([10]; ATCC4617) of 1000 µg/mL (≈ 3700 µM). The MBC/MIC [11] was 1, the MBC [11] was 500 µg/mL (≈ 1850 µM) and the MIC [11] was 500 µg/mL (≈ 1850 µM). It also gave an MBC/MIC [12] greater than 1, an MBC ([12]; ATCC25922) greater than 1000 µg/mL and an MIC ([12]; ATCC25922) of 1000 µg/mL (≈ 3700 µM). For the same compound, the MBC/MIC [13] was greater than 1, the MBC ([13]; ATCC13883) was greater than 1000 µg/mL and the MIC ([13]; ATCC13883) was 1000 µg/mL (≈ 3700 µM). For the same compound, the MIC [14] was greater than 1000 µg/mL, the MIC [15] was greater than 1000 µg/mL and the MFC/MIC [16] was 2. The MFC ([16]; Nakaseomyces glabratus, ATCC90030, read-out: MFC) was 500 µg/mL (≈ 1850 µM), the MIC ([16]; Nakaseomyces glabratus) was 250 µg/mL (≈ 925 µM) and the MIC [17] was greater than 1000 µg/mL. For the same compound, the MFC/MIC [18] was greater than 2, the MFC ([18]; Lodderomyces parapsilosis, ATCC22019, read-out: MFC) was greater than 1000 µg/mL and the MIC ([18]; Lodderomyces parapsilosis) was 500 µg/mL (≈ 1850 µM). It also gave an MIC [19] of 15.6 to 1000 µg/mL (≈ 57.8 to 3700 µM), an MBC [20] greater than 1000 µg/mL and an MIC [20] of 500 to 1000 µg/mL (≈ 1850 to 3700 µM).
COc1ccc(/C=N/NC(=O)c2ccc(O)cc2O)cc1Br [Compound 10, N-[(3-bromo-4-methoxyphenyl)methylidene]-2,4-dihydroxybenzohydrazide] showed an MBC/MIC [1] greater than 4, an MBC [1] greater than 1000 µg/mL and an MIC ([1]; ATCC10240, read-out: MIC) of 250 µg/mL (≈ 685 µM). For the same compound, the MIC ([2]; ATCC12453) was greater than 1000 µg/mL, the MIC [3] was greater than 1000 µg/mL and the MIC ([4]; Salmonella enterica) was greater than 1000 µg/mL. For the same compound, the MBC/MIC [5] was 16, the MBC [5] was 250 µg/mL (≈ 685 µM) and the MIC [5] was 15.6 µg/mL (≈ 42.8 µM). The MBC [6] was 500 µg/mL (≈ 1370 µM), the MBC/MIC [6] was 16 and the MIC [6] was 31.2 µg/mL (≈ 85.6 µM). It also gave an MBC/MIC [7] greater than 1, an MBC [7] of 1000 µg/mL (≈ 2740 µM) and an MIC [7] of 1000 µg/mL (≈ 2740 µM). For the same compound, the MBC/MIC [8] was greater than 4, the MBC [8] was greater than 1000 µg/mL and the MIC ([8]; ATCC6633, read-out: MIC) was 250 µg/mL (≈ 685 µM). It also gave an MBC/MIC [9] of 2, an MBC [9] of 250 µg/mL (≈ 685 µM) and an MIC [9] of 125 µg/mL (≈ 342 µM). The MIC ([10]; ATCC4617) was greater than 1000 µg/mL, the MBC/MIC [11] was 4 and the MBC [11] was 1000 µg/mL (≈ 2740 µM). For the same compound, the MIC [11] was 250 µg/mL (≈ 685 µM), the MIC ([12]; ATCC25922) was greater than 1000 µg/mL and the MIC ([13]; ATCC13883) was greater than 1000 µg/mL. The MIC [14] was greater than 1000 µg/mL, the MIC [15] was greater than 1000 µg/mL and the MIC ([16]; Nakaseomyces glabratus) was greater than 1000 µg/mL. The MIC [17] was greater than 1000 µg/mL, the MIC ([18]; Lodderomyces parapsilosis) was greater than 1000 µg/mL and the MIC [19] was 15.6 to 1000 µg/mL (≈ 42.8 to 2740 µM). The melting point was 260 °C.
